# Results from ChEMBL document CHEMBL1799994, “Synthesis and docking studies on styryl chromones exhibiting cytotoxicity in human breast cancer cell line” (Bioorg Med Chem Lett, 2010).
# Tests used:
# [1] = tested on: MCF7; assay: Cytotoxicity against human MCF7 cells expressing estrogen receptor after 24 hrs by MTT assay; format: functional, cell-based
# [2] = tested on: MCF7; assay: Antiproliferative activity against human MCF7 cells expressing estrogen receptor after 24 hrs by MTT assay; format: functional, cell-based
structure (smiles),measurement,setting,value
CC(=O)OC1=C(/C=C/c2ccccc2)Oc2ccccc2C1=C(C#N)C#N,Activity,[1],Dose-dependent effect
same,Activity,[2],Dose-dependent effect
